The assay concerns Human hepatocytes (HepG2) and human melanoma cells (M10). As to the kind of experiment: Micronuclei in binucleated cells after γ-radiation, cells treated with amifostine. It counts as cell-based. To be noted: binucleated cells after 60 hours. How it is done: Human hepatocytes (HepG2) and human melanoma cells (M10) were cultured in α-Minimum Essential Medium (Gibco) at 37° C. in 5% CO2. Cells were mixed with BME (i.e., Basement Membrane Matrix Phenol Red-free (BD Biosciences Matrigel)) chilled to 4° C. and printed onto a glass microfluidic chip having a PDMS substrate (see FIGS. 13 and 14) using a temperature-controlled BME printing apparatus 0-5° C. (see, for example, FIGS. 9 and 10).
After the 4 hour treatment with amifostine, the cells were exposed to 2 Grays of γ-radiation from a cesium source. […] Then, the cells were incubated and allowed to divide for 60 hours and examined for evidence of radiation damage.
Binucleated cells were examined for the presence of micronuclei as evidence of radiation damage.

In the case of `NCCCNCCSP(=O)(O)O` [amifostine], the “radiation-treated cells found to have micronuclei” value is given as “about 3%” (microfluidic chip, 1 mM amifostine perfusion 4 hours before and 90 minutes after 2 Grays γ-radiation); “about 4%” (tissue culture plate, 1 mM amifostine 4 hours before and 90 minutes after 2 Grays γ-radiation).

For the origin of these results see patent publication US20110136162A1, “Compositions and Methods for Functionalized Patterning of Tissue Engineering Substrates Including Bioprinting Cell-Laden Constructs for Multicompartment Tissue Chambers” (Drexel University, priority 2009, published 2011).
